Laboratory results: the supplement of paper PMC10307832

Key:
Assay in all cases: relative viability (nuclei count vs DMSO), 5 days (fraction); higher = more cells survive
Dabrafenib + Decitabine = compound: CC(C)(C)c1nc(-c2cccc(NS(=O)(=O)c3c(F)cccc3F)c2F)c(-c2ccnc(N)n2)s1 [Dabrafenib] + Nc1ncn([C@H]2C[C@H](O)[C@@H](CO)O2)c(=O)n1 [Decitabine] (partner 2 µM)
In short: (§1)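 Values are medians from duplicate plates. Each reflects relative viability, defined as the nuclei count of treated wells over that of vehicle wells. Lung cancer cell lines in 1536-well plates were pin-tool dosed one day after seeding with one drug alone or with a fixed anchor-drug dose plus five library-drug doses (not always all listed) in √10 steps, then fixed, stained and imaged at 4× after 5 days.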

Dabrafenib + Vorinostat = compound: CC(C)(C)c1nc(-c2cccc(NS(=O)(=O)c3c(F)cccc3F)c2F)c(-c2ccnc(N)n2)s1 [Dabrafenib] + O=C(CCCCCCC(=O)Nc1ccccc1)NO [Vorinostat] (partner 1 µM)
In short: as §1

VX-702 + Lapatinib = compound: NC(=O)c1ccc(N(C(N)=O)c2c(F)cccc2F)nc1-c1ccc(F)cc1F [VX-702] + CS(=O)(=O)CCNCc1ccc(-c2ccc3ncnc(Nc4ccc(OCc5cccc(F)c5)c(Cl)c4)c3c2)o1 [Lapatinib] (partner 2 µM)
In short: as §1

VX-702 + Alpelisib = compound: NC(=O)c1ccc(N(C(N)=O)c2c(F)cccc2F)nc1-c1ccc(F)cc1F [VX-702] + Cc1nc(NC(=O)N2CCC[C@H]2C(N)=O)sc1-c1ccnc(C(C)(C)C(F)(F)F)c1 [Alpelisib] (partner 2 µM)
In short: as §1

Row | Cell Line | relative viability (Dabrafenib + Decitabine; first compound 0.003 µM) | relative viability (Dabrafenib + Decitabine; first compound 0.009487 µM) | relative viability (Dabrafenib + Decitabine; first compound 0.03 µM) | relative viability (Dabrafenib + Decitabine; first compound 0.09487 µM) | relative viability (Dabrafenib + Decitabine; first compound 0.3 µM) | relative viability (Dabrafenib + Vorinostat; first compound 0.003 µM) | relative viability (Dabrafenib + Vorinostat; first compound 0.009487 µM) | relative viability (Dabrafenib + Vorinostat; first compound 0.03 µM) | relative viability (Dabrafenib + Vorinostat; first compound 0.09487 µM) | relative viability (Dabrafenib + Vorinostat; first compound 0.3 µM) | relative viability (VX-702 + Lapatinib; first compound 0.02 µM) | relative viability (VX-702 + Lapatinib; first compound 0.2 µM) | relative viability (VX-702 + Lapatinib; first compound 0.6325 µM) | relative viability (VX-702 + Lapatinib; first compound 2 µM) | relative viability (VX-702 + Alpelisib; first compound 0.02 µM) | relative viability (VX-702 + Alpelisib; first compound 0.2 µM) | relative viability (VX-702 + Alpelisib; first compound 0.6325 µM) | relative viability (VX-702 + Alpelisib; first compound 2 µM)
1 | NCI-H2023 | 0.236 | 0.222 | 0.196 | 0.214 | 0.135 | 0.716 | 0.717 | 0.733 | 0.559 | 0.6 | 0.729 | 0.504 | 0.712 | 0.977 | 0.55 | 0.606 | 0.483 | 0.561
2 | NCI-H1437 | 0.582 | 0.55 | 0.626 | 0.513 | 0.43 | 0.839 | 0.813 | 0.907 | 0.802 | 0.872 | 0.779 | 0.753 | 0.972 | 0.959 | 0.943 | 0.858 | 0.911 | 1.14
3 | HCC-827 | 0.267 | 0.347 | 0.33 |  | 0.283 | 0.423 | 1.01 | 0.785 |  | 0.79 | 0.181 | 0.191 | 0.19 | 0.152 | 0.982 | 1.04 | 0.884 | 0.684
4 | HARA |  | 0.537 | 0.595 | 0.539 | 0.499 | 0.553 | 0.644 |  | 0.481 | 0.567 | 0.653 | 0.69 | 0.91 | 0.825 | 0.789 | 0.832 | 0.836 | 0.921
5 | NCI-H838 | 0.436 | 0.466 | 0.497 | 0.428 | 0.335 | 0.693 | 0.752 | 0.713 | 0.711 | 0.759 | 1.06 | 1.01 | 1.13 | 1.35 | 0.965 | 0.893 | 0.95 | 1.23
6 | NCI-H2085 | 0.552 | 0.575 | 0.559 | 0.592 | 0.518 | 0.669 | 1.01 | 0.801 | 0.79 | 0.748 | 0.81 | 0.739 | 0.767 | 0.808 | 1.08 | 0.838 | 0.959 | 0.955
7 | COR-L23 | 0.475 | 0.47 | 0.41 | 0.432 | 0.279 | 0.387 | 0.418 | 0.441 | 0.412 | 0.44 | 0.999 | 0.862 | 0.914 | 1.26 | 0.947 | 0.831 | 0.841 | 0.986
8 | NCI-H322M |  | 0.72 |  | 0.656 | 0.737 |  | 0.962 |  | 0.822 | 0.74 | 0.58 | 0.616 | 0.583 | 0.674 | 0.873 | 0.695 | 0.779 | 0.894
9 | NCI-H1915 | 0.264 | 0.262 | 0.256 | 0.255 | 0.243 | 0.544 | 0.576 | 0.414 | 0.219 | 0.206 | 1.05 | 1 | 1 | 1.07 | 1.04 | 1.05 | 1.1 | 1.15
10 | EPLC-272H |  | 0.393 | 0.367 | 0.365 | 0.442 | 0.401 | 0.411 | 0.409 | 0.436 | 0.498 | 1.09 | 0.751 | 1.1 | 1.59 | 0.982 | 0.752 | 0.965 | 1.01
11 | NCI-H1734 |  | 0.456 | 0.471 | 0.488 | 0.337 |  | 0.85 | 0.627 | 0.708 | 0.759 | 0.541 | 0.961 | 1.05 | 0.917 | 0.626 | 0.596 | 0.588 | 0.559
12 | NCI-H2405 |  | 0.742 | 0.529 | 0.692 | 0.574 |  | 1 | 0.488 | 0.81 | 0.962 | 1.23 | 0.761 | 1.02 | 1.46 | 0.672 | 0.766 | 0.774 | 0.949
13 | LK-2 | 0.225 | 0.287 |  | 0.326 | 0.22 | 0.333 | 0.228 | 0.268 | 0.265 | 0.34 | 0.986 | 0.727 | 0.891 | 0.895 | 0.611 |  | 0.635 | 1.18
14 | NCI-H1666 | 0.69 | 0.813 | 0.789 | 0.674 | 0.751 | 1.05 | 0.937 | 1.19 | 0.972 | 1.15 | 0.828 | 0.583 | 0.711 | 0.438 | 1 | 0.862 | 0.88 | 0.909
15 | NCI-H2347 |  | 0.657 | 0.598 | 0.706 | 0.616 |  | 0.603 | 0.385 | 0.551 | 0.591 | 0.996 | 0.813 | 0.891 | 0.902 | 1.01 | 1.12 | 1.05 | 1.14
16 | NCI-H1944 | 0.45 | 0.46 | 0.436 | 0.467 | 0.364 | 0.445 | 0.529 | 0.508 | 0.659 | 0.483 | 0.903 | 0.774 | 0.878 | 0.789 | 0.76 | 0.775 | 0.818 | 0.605

Row | Cell Line | relative viability (Dabrafenib + Decitabine; first compound 0.003 µM) | relative viability (Dabrafenib + Decitabine; first compound 0.009487 µM) | relative viability (Dabrafenib + Decitabine; first compound 0.03 µM) | relative viability (Dabrafenib + Decitabine; first compound 0.09487 µM) | relative viability (Dabrafenib + Decitabine; first compound 0.3 µM) | relative viability (Dabrafenib + Vorinostat; first compound 0.003 µM) | relative viability (Dabrafenib + Vorinostat; first compound 0.009487 µM) | relative viability (Dabrafenib + Vorinostat; first compound 0.03 µM) | relative viability (Dabrafenib + Vorinostat; first compound 0.09487 µM) | relative viability (Dabrafenib + Vorinostat; first compound 0.3 µM) | relative viability (VX-702 + Lapatinib; first compound 0.02 µM) | relative viability (VX-702 + Lapatinib; first compound 0.2 µM) | relative viability (VX-702 + Lapatinib; first compound 0.6325 µM) | relative viability (VX-702 + Lapatinib; first compound 2 µM) | relative viability (VX-702 + Alpelisib; first compound 0.02 µM) | relative viability (VX-702 + Alpelisib; first compound 0.2 µM) | relative viability (VX-702 + Alpelisib; first compound 0.6325 µM) | relative viability (VX-702 + Alpelisib; first compound 2 µM)
17 | A-427 | 0.569 | 0.562 | 0.569 | 0.551 | 0.504 | 0.793 | 0.962 | 0.787 | 0.762 | 0.866 | 1.17 | 0.968 | 1.07 | 1.16 | 0.997 | 0.99 | 1.1 | 1.17
18 | NCI-H520 | 0.583 | 0.515 | 0.392 | 0.459 | 0.342 | 0.82 | 0.753 | 0.63 | 0.823 | 0.74 | 0.809 | 1.05 | 0.798 | 1.05 | 0.919 | 0.788 | 0.796 | 1.06
19 | ABC-1 |  | 1.07 | 1.15 | 1.28 | 1.54 |  | 1.37 | 1.19 | 1.25 | 1.04 | 0.972 | 0.98 |  | 1.18 | 0.948 |  | 0.901 | 1
20 | NCI-H647 | 0.445 | 0.366 | 0.308 | 0.358 | 0.234 | 0.814 | 0.529 | 0.445 | 0.401 | 0.524 | 1.15 | 0.935 | 1.24 | 1.25 | 1.29 | 1 | 1.08 | 1.14
21 | NCI-H1793 |  | 0.531 |  | 0.521 | 0.418 |  | 1.12 |  | 0.877 | 0.873 | 0.752 | 0.59 | 0.817 | 0.987 | 0.822 | 0.583 | 0.545 | 0.959
22 | LU99A | 0.965 | 0.954 | 0.708 | 0.85 | 0.907 | 0.549 | 0.492 | 0.457 | 0.406 | 0.391 | 0.948 | 1.02 | 0.987 | 0.982 | 0.52 | 0.485 | 0.48 | 0.467
23 | BEN |  | 0.865 |  | 0.721 | 0.656 |  | 0.499 |  | 0.517 | 0.612 | 0.726 | 0.662 | 0.539 | 0.926 | 0.823 | 0.912 | 0.919 | 1.18
24 | EKVX |  | 0.38 | 0.29 | 0.44 | 0.353 |  | 0.862 | 0.716 | 0.608 | 0.806 | 0.215 | 0.22 | 0.226 | 0.127 | 0.814 | 0.801 | 0.73 | 0.855
25 | SK-LU-1 |  | 0.657 | 0.569 | 0.571 | 0.484 |  | 0.716 | 0.692 | 0.605 | 0.651 | 1.09 | 0.885 | 0.887 | 1.29 | 1.08 | 0.972 | 1.04 | 1.34
26 | COR-L 105 | 0.6 | 0.691 | 0.666 | 0.681 | 0.675 | 0.779 | 0.975 | 0.806 | 0.888 | 0.911 | 0.332 | 0.336 | 0.338 | 0.326 | 1.08 | 0.947 | 0.868 | 1.24
27 | NCI-H2170 | 0.47 | 0.472 | 0.423 | 0.42 | 0.36 | 0.777 | 0.798 | 0.703 | 0.647 | 0.732 | 0.278 | 0.284 | 0.273 | 0.299 | 0.801 | 0.61 | 0.757 | 0.869
28 | SW 1573 | 0.448 | 0.545 | 0.488 | 0.589 | 0.357 | 0.73 | 0.719 | 0.672 | 0.552 | 0.673 | 1.05 | 1.13 | 1.05 | 0.919 | 0.789 | 0.64 | 0.759 | 0.652
29 | NCI-H2087 |  | 0.305 | 0.352 | 0.278 | 0.213 |  | 0.8 | 0.779 | 0.594 | 0.809 | 1.28 | 1.1 | 1.1 | 1.16 | 1.2 | 1.04 | 1.04 | 1.19
30 | NCI-H358 | 0.198 | 0.198 | 0.186 | 0.195 | 0.152 | 0.86 | 0.695 | 0.741 | 0.689 | 0.72 | 0.485 | 0.442 | 0.484 | 0.546 | 0.804 | 0.778 | 0.777 | 0.973
31 | NCI-H1975 | 0.373 | 0.413 | 0.355 | 0.4 | 0.312 | 0.636 | 0.742 | 0.741 | 0.705 | 0.663 | 0.925 | 1.03 | 0.961 | 1.22 | 0.738 | 0.664 | 0.716 | 0.869
